These are literature values, as cited in publication PMC9825171 (Nucleic Acids Research, 2022).

Structures are written as SMILES.

This series deals with interactions of both NICD and SHARP with RBPJ. The following applies: cellular assays; ref [63].

Consider `Cn1nccc1-c1ccc(C(N)=O)c(Oc2ccccc2F)c1` [RIN1], for which the “effect on RBPJ-coregulator interactions, in words” value is “block the interactions of both NICD and SHARP with RBPJ”.
